Assay: Clearance in human liver microsomes
Type: in vitro ADME
Conditions: hepatic extraction ratio; 0.5 μM compound, 0.5 mg/mL microsomes, 1 mM NADPH, 30 min
Description: Test compound concentration is 0.5 μM, microsome concentration is 0.5 mg/mL and NADPH concentration is 1 mM in the incubation. The described method is performed by the liquid handling system Tecan RSP and is based on a 96-well format.
Control incubations with test compound without NADPH and test compound without microsomes are conducted to investigate non-CYP mediated metabolism and stability in phosphate buffer at 37° C., respectively.
The human liver microsomal suspension in phosphate buffer is mixed with NADPH. The mixture is pre-heated (7 min) to 37° C. Test compound is added, and the mixture is incubated for 30 minutes. Incubations are run in duplicate. Samples are withdrawn at predetermined stop times and mixed with methanol containing internal standard (IS) to terminate all enzyme activity and precipitate proteins. A control without NADPH (to detect problems such as nonspecific protein binding, heat instability or non-CYP mediated metabolism) and a control without microsomes (for assessing compound stability in the absence of any active enzymes) are tested.
The percentage of organic solvent in the incubations is less than 1%. Careful inspections of reagents are performed prior to the start of any experiment to ensure all reagents are in solution.
The 96-well plates are centrifuged. Test compound depletion, using a compound specific LC/MS/MS method, is determined.
The logarithm of the peak area ratios of test compound to internal standard (IS) versus incubation time is plotted in a graph.
The rate constant (k) (min^−1) of test compound depletion is calculated from the linear part of the curve and the half-time (t1/2) in minutes can be calculated from the rate constant (Eq. 2).
Intrinsic clearance (Clint) (mL/min/mg protein) is calculated from: […]
where c is the microsomal protein concentration in mg/mL.
Intrinsic clearance is the maximum ability of the liver to extract a drug in the absence of blood flow restrictions.
Conversion to apparent clearance (Clapp) (mL/min/kg) is done by Eq. 4:
Clapp=Clint×a×b/d (Eq. 4)
where a, b and d are the scaling factors for normalizing Clint to human body weight.
The following human scaling factors are used:
a: 45 (microsomal protein/liver weight (mg/g)) b: 1500 (liver weight (g)) d: 70 (body weight (kg))
Hepatic clearance (Clh) (mL/min/kg) based on the well-stirred model is described as followed:
Clh=(Clapp·Q)/(Clapp+Q) (Eq. 5)
where Q is the liver blood flow in mL/min/kg (20 in humans).
Dividing hepatic clearance with liver blood flow, the hepatic extraction ratio (%) can be calculated:
Apparent clearance below approximately 10 mL/min/kg human body weight (corresponding to extraction ratio of approx. 33%) is considered as low clearance (high metabolic stability). Apparent intrinsic clearance above approximately 60 mL/min/kg human body weight (corresponding to extraction ratio of approx. 75%) is considered as high clearance (low metabolic stability).

Clearance (% Eh) in human liver microsomes, A (A: Eh < 33%):
C[C@@H](N[C@H]1CC[C@@H](c2ccc(NCCNCCO)nc2)C1)c1cccc2ccccc12.O=CO.O=CO.O=CO [Compound 101, 2-[2-[[5-[(1R,3S)-3-[[(1R)-1-(1-Naphthyl)ethyl]amino]cyclopentyl]-2-pyridyl]amino]ethylamino]ethanol]
COc1cc([C@@H](C)N[C@H]2CC[C@@H](c3ccc(NC4CCNCC4)nc3)C2)ccc1F [Compound 107, 5-[(1R,3S)-3-[[(1R)-1-(4-Fluoro-3-methoxy-phenyl)ethyl]amino]cyclopentyl]-N-(4-piperidyl)pyridin-2-amine]
COc1cc([C@@H](C)N[C@H]2CC[C@@H](c3ccc(N4CCNC(=O)C4)nc3)C2)ccc1F [Compound 109, 4-[5-[(1R,3S)-3-[[(1R)-1-(4-Fluoro-3-methoxy-phenyl)ethyl]amino]cyclopentyl]-2-pyridyl]piperazin-2-one]
COc1cc([C@@H](C)N[C@H]2CC[C@@H](c3ccc(NCCS(N)(=O)=O)nc3)C2)ccc1F [Compound 113, 2-[[5-[(1R,3S)-3-[[(1R)-1-(4-Fluoro-3-methoxyphenyl)ethyl]amino]cyclopentyl]-2-pyridyl]amino]ethanesulfonamide]
COc1cc([C@@H](C)N[C@H]2CC[C@@H](c3ccc(NCC(O)CO)nc3)C2)ccc1F (stereo partly drawn) [Compound 115, 3-[[5-[(1R,3S)-3-[[(1R)-1-(4-Fluoro-3-methoxyphenyl)ethyl]amino]cyclopentyl]-2-pyridyl]amino]propane-1,2-diol]
COc1cc([C@@H](C)N[C@H]2CC[C@@H](c3ccc(N4CCN(C(C)=O)CC4)nc3)C2)ccc1F [Compound 116, 1-[4-[5-[(1R,3S)-3-[[(1R)-1-(4-Fluoro-3-methoxyphenyl)ethyl]amino]cyclopentyl]-2-pyridyl]piperazin-1-yl]ethanone]
COc1cc([C@@H](C)N[C@H]2CC[C@@H](c3cnc(N4CCNC(=O)C4)nc3)C2)ccc1F [Compound 126, 4-[5-[(1R,3S)-3-[[(1R)-1-(4-Fluoro-3-methoxy-phenyl)ethyl]amino]cyclopentyl]pyrimidin-2-yl]piperazin-2-one]
COc1cc([C@@H](C)N[C@H]2CC[C@@H](c3cnc(N4CCN(C(C)=O)CC4)nc3)C2)ccc1F.O=CO [Compound 127, 1-[4-[5-[(1R,3S)-3-[[(1R)-1-(4-Fluoro-3-methoxy-phenyl)ethyl]amino]cyclopentyl]pyrimidin-2-yl]piperazin-1-yl]ethanone]

Reference: patent US20130267516A1, “SUBSTITUTED CYCLOPENTYL-AZINES AS CASR-ACTIVE COMPOUNDS” (LEO PHARMA A/S, priority 2010, published 2013)
